Reference: US9675627B2, “Dosing regimens for treating and/or preventing cerebral amyloidoses” (Amicus Therapeutics, Inc., priority 2014, dated 2017)

What was measured:
β-hex [1] = experiment: beta-hexosaminidase enhancement assay in fibroblasts; type: cell-based; conditions: healthy human skin fibroblasts, 5 days, 95, 390 or 780 nM, dose-dependent
Excerpt: (§1) Enzymatic activity measurements were done in duplicate.

β-galactosidase (β-Gal) = target: T1, β-galactosidase (β-Gal) (Homo sapiens, UniProt P16278); experiment: Selectivity: beta-galactosidase activity in fibroblast lysate; type: biochemical; conditions: 10 μM, the highest concentration tested
T1 construct: wild-type fibroblast (CRL2076) pellets (˜2.5e6 cells/pellet) were lysed; host or cells: wild-type fibroblasts CRL2076, lysate
T1 sequence (P16278 29-677): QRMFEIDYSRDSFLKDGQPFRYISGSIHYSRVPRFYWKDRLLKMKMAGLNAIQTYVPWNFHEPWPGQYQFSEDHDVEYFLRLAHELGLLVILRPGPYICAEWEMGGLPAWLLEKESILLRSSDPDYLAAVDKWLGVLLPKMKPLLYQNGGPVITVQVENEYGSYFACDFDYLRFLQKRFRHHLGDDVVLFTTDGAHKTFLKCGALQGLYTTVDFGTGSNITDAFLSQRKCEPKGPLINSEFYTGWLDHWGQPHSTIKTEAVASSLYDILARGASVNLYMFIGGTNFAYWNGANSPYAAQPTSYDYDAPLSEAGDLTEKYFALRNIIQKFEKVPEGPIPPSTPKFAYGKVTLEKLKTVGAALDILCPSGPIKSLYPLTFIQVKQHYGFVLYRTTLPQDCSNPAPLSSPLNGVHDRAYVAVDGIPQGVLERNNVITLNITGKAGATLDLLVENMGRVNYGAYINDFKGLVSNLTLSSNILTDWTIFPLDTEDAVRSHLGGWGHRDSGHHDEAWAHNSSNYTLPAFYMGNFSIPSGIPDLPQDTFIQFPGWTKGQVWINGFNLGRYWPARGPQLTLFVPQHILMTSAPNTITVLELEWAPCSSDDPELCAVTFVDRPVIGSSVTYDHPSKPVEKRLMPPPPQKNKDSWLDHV
Excerpt: as §1

β-hex [2] = experiment: Proof-of-concept study: brain β-hex levels; type: in vivo, Dutch APP^E693Q transgenic mice; conditions: 3-month course
Method: (§2) The generation and characterization of Dutch APPE693Q mice transgenic mice is described in Gandy, S., et al. Days to criterion as an indicator of toxicity associated with human Alzheimer amyloid-beta oligomers. Annals of neurology 68, 220-230 (2010). 3-month-old male Dutch APP^E693Q mice transgenic mice were orally gavaged 5 days/week with either vehicle (water) (n=15) or 3, 10, 30 or 100 mg/kg AdDNJ for 3 months (n=13). All animal studies were approved and conducted in accordance with the Institutional Animal Care and Usage Committee. Mice were kept in a pathogen-free environment, on a 12-hour light/dark cycle and given ad libitum access to food and water. At 6 month of age treatment groups, and a 3-month-old untreated baseline group (n=15), were cognitively assessed in the NOR, EPM and FC tests. 48 hours following the final dose mice were perfused with ice-cold 1×PBS. The brain was removed and dissected into two hemispheres. One half was snap-frozen on dry ice and stored at −80° C. for biochemistry; the other half was post-fixed in 4% paraformaldehyde then sagittally sectioned on a vibratome into 30 μm sections and stored at 4° C. in storage buffer until histological analyses.

β-hex [3] = target: T2, β-hex (Mus musculus, UniProt P20060); experiment: Proof-of-concept study: brain β-hex levels; type: in vivo, Dutch APP^E693Q transgenic mice; conditions: 3-month course, dose-dependent
T2 construct: from tissue; host or cells: brain of Dutch APP E693Q transgenic mice
T2 sequence (P20060 32-536): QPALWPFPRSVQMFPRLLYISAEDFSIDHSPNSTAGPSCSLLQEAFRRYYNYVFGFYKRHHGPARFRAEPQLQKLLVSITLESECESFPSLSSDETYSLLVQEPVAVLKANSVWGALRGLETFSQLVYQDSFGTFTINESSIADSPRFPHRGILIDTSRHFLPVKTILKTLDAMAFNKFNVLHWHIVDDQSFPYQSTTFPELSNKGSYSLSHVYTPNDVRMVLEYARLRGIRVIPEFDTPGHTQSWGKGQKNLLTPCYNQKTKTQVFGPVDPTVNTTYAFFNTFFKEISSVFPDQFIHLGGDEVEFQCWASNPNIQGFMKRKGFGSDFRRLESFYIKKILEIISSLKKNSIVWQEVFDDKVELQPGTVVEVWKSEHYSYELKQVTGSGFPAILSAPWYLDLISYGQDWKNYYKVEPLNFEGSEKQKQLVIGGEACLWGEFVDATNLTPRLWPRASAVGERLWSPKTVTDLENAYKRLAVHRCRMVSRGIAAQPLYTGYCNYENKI
Method: as §2

β-hex [4] = test system: β-hex
Method: AdDNJ selectivity was assessed by measuring its effect on the enzymatic activity of hexosaminadase (Total Hex, Hex A/S and Hex B), and 3 other lysosomal hydrolases: alpha-galactosidase, beta-galactosidase and glucocerebrosidase. For enzymatic assays, wild-type fibroblast (CRL2076) pellets (˜2.5e6 cells/pellet) were lysed with 200 μl of pH 5 lysis buffer (Phosphate/citrate, 0.25% tauorocholate, 0.1% TX100). Fibroblast lysates were diluted 1:200 in pH 5 reaction buffer (lysis buffer without TX100) containing 2 mM of the appropriate 4-methylumbelliferyl (4-MU) substrate, incubated for 1 h at 37° C. and stopped with 0.5 M sodium carbonate. Released 4MU was measured using a Perkin Elmer Victor 5× fluorescence plate reader (ex355/em460). Measurement of Total Hex activity was carried out using 4-methylumbelliferyl beta-N-acetylglucosaminide (MUG); for Hex A/S activity 4MU-beta-N-acetylglucosamine-6-sulfate (MUGS); Hex B activity was calculated as the difference between Total Hex and Hex A/S activity; for alpha-galactosidase activity […]; for beta-galactosidase activity 4-MU beta-D-galactoside; for glucocerebrosidase activity 4MU beta-D-glucopyranoside. As positive controls for enzymatic inhibition 100 μM of the following compounds were used: for alpha-galactosidase, 1-deoxygalactonojirimycin; for beta-galactosidase, N-Butyl-1-deoxygalactonojirimycin; for glucocerebrosidase, isofagamine. For beta-hexosaminadase enhancement assays, fibroblasts were exposed to 0, 95, 390 and 780 nM of AdDNJ for 5 days followed by beta-hexosamindase activity measurement. Enzymatic activity measurements were done in duplicate.
5-week-old C57BL/J6 mice (n=5 mice/group, Taconic Farms, Germantown, N.Y.) were administered vehicle (water) or AdDNJ (30, 100 or 300 mg/kg) via oral gavage every day for 14 days. On day 15 mice were euthanized and brain/plasma collected for analysis. For single dose PK studies, 5-week-old C57BL/J6 mice (n=5 mice/group, Taconic Farms, Germantown, N.Y.) received a single 100 mg/kg dose (oral gavage) of AdDNJ and groups euthanized at 0.5, 1, 2, 4, 8, 16, 24 and 48 hours post dose for brain and plasma analysis. Whole brain tissue (10-15 mg) was homogenized in 1 mL of pH 5 lysis buffer for measuring beta-hexosaminidase activity as described above. AdDNJ levels were measured in plasma and brain samples using LC-MS/MS.

[5] = daily gavage 14 days at 30, 100 and 300 mg/kg

SMILES: CC(=O)NC1CNC(CO)[C@@H](O)C1O (stereo partly drawn) [AdDNJ, 2-acetamido-1,2-dideoxynojirimycin]
- increase in β-hex levels (β-hex [1]): up to 3 fold
- inhibition of β-galactosidase (β-Gal) (β-galactosidase (β-Gal)): did not inhibit
- increase in total brain β-hex (β-hex [2]; 3-100 mg/kg oral 5 days/week, at the highest dose): up to 3 fold
- brain β-hex A&S level (β-hex [2]; dose-dependent): increased
- brain β-hex B level (β-hex [3]): increased
- time of maximum increase in β-hex levels (β-hex [4]; daily gavage 30, 100, 300 mg/kg): ~5 days
- GM2 levels in whole brain extracts (β-hex [4]; [5]): without increasing GM2 levels
- brain β-hex levels (β-hex [4]; [5]): dose-dependent increase
- half-life of elevated β-hex levels in the brain (β-hex [4]; data not shown): ~2 days
